According to ChEMBL document CHEMBL4024706 (Eur J Med Chem, 2017):

What was measured:
[1] = molecular target: Tyrosine-protein kinase JAK1 (Homo sapiens) (UniProt P23458); test: Inhibition of wild-type human partial length JAK1 JH2 pseudokinase domain (R537 to D855 residues) expressed in mammalian expression system assessed as residual activity at 1 uM by Kinomescan method relative to control
[2] = molecular target: Dual specificity tyrosine-phosphorylation-regulated kinase 1B (Homo sapiens) (UniProt Q9Y463); test: Inhibition of wild-type human full length DYRK1B (M1 to S629 residues) expressed in bacterial expression system assessed as residual activity at 1 uM by Kinomescan method relative to control
[3] = molecular target: Serine/threonine-protein kinase 35 (Homo sapiens) (UniProt Q8TDR2); test: Inhibition of wild-type human partial length STK35 (G182 to A534 residues) expressed in bacterial expression system assessed as residual activity at 1 uM by Kinomescan method relative to control
[4] = molecular target: High affinity nerve growth factor receptor (Homo sapiens) (UniProt P04629); test: Inhibition of wild-type human partial length TRKA (G475 to G790 residues) expressed in mammalian expression system assessed as residual activity at 1 uM by Kinomescan method relative to control
[5] = molecular target: Myotonin-protein kinase (Homo sapiens) (UniProt Q09013); test: Inhibition of wild-type human partial length DMPK (V47 to V415 residues) expressed in bacterial expression system assessed as residual activity at 1 uM by Kinomescan method relative to control
[6] = molecular target: Serine/threonine-protein kinase SIK3 (Homo sapiens) (UniProt Q9Y2K2); test: Inhibition of wild-type human partial length QSK (A90 to L395 residues) expressed in mammalian expression system assessed as residual activity at 1 uM by Kinomescan method relative to control
[7] = molecular target: Phosphatidylinositol 4-phosphate 5-kinase type-1 gamma (Homo sapiens) (UniProt O60331); test: Inhibition of wild-type human partial length PIP5K1C (M1 to T668 residues) expressed in mammalian expression system assessed as residual activity at 1 uM by Kinomescan method relative to control
[8] = molecular target: Ankyrin repeat and protein kinase domain-containing protein 1 (Homo sapiens) (UniProt Q8NFD2); test: Inhibition of wild-type human partial length ANKK1 (M1 to A305 residues) expressed in mammalian expression system assessed as residual activity at 1 uM by Kinomescan method relative to control
[9] = molecular target: Phosphatidylinositol 4-phosphate 5-kinase type-1 alpha (Homo sapiens) (UniProt Q99755); test: Inhibition of wild-type human full length PIP5K1A (M1 to H562 residues) expressed in bacterial expression system assessed as residual activity at 1 uM by Kinomescan method relative to control
[10] = molecular target: Mitogen-activated protein kinase kinase kinase 4 (Homo sapiens) (UniProt Q9Y6R4); test: Inhibition of wild-type human partial length MAP3K4 (G1319 to E1608 residues) expressed in bacterial expression system assessed as residual activity at 1 uM by Kinomescan method relative to control
[11] = molecular target: Insulin-like growth factor 1 receptor (Homo sapiens) (UniProt P08069); test: Inhibition of wild-type human partial length IGF1R (L972 to D1294 residues) expressed in bacterial expression system assessed as residual activity at 1 uM by Kinomescan method relative to control
[12] = molecular target: Cyclin-dependent kinase 9 (Homo sapiens) (UniProt P50750); test: Inhibition of wild-type human full length CDK9 (M1 to F372 residues) expressed in bacterial expression system assessed as residual activity at 1 uM by Kinomescan method relative to control
[13] = molecular target: Vascular endothelial growth factor receptor 2 (Homo sapiens) (UniProt P35968); test: Inhibition of wild-type human partial length VEGFR2 (R787 to P1253 residues) expressed in mammalian expression system assessed as residual activity at 1 uM by Kinomescan method relative to control
[14] = molecular target: Mitogen-activated protein kinase 12 (Homo sapiens) (UniProt P53778); test: Inhibition of wild-type human full length p38-gamma (M1 to L367 residues) expressed in mammalian expression system assessed as residual activity at 1 uM by Kinomescan method relative to control
[15] = molecular target: Phosphatidylinositol 5-phosphate 4-kinase type-2 gamma (Homo sapiens) (UniProt Q8TBX8); test: Inhibition of wild-type human partial length PIP5K2C (M1 to A421 residues) expressed in mammalian expression system assessed as residual activity at 1 uM by Kinomescan method relative to control
[16] = molecular target: Serine/threonine-protein kinase MARK1 (Homo sapiens) (UniProt Q9P0L2); test: Inhibition of wild-type human partial length MARK1 (Q30 to T341 residues) expressed in bacterial expression system assessed as residual activity at 1 uM by Kinomescan method relative to control
[17] = MRT (0 to t) in Sprague-Dawley rat at 1 mg/kg, iv by LC-MS/MS method; assay type: ADME, organism-based; conditions: in vivo
[18] = molecular target: Mitogen-activated protein kinase kinase kinase 1 (Homo sapiens) (UniProt Q13233); test: Inhibition of wild-type human partial length MAP3K1 (L1202 to W1512 residues) expressed in mammalian expression system assessed as residual activity at 1 uM by Kinomescan method relative to control
[19] = molecular target: Serine/threonine-protein kinase 33 (Homo sapiens) (UniProt Q9BYT3); test: Inhibition of wild-type human full length STK33 (M1 to L514 residues) expressed in bacterial expression system assessed as residual activity at 1 uM by Kinomescan method relative to control
[20] = molecular target: Activin receptor type-2B (Homo sapiens) (UniProt Q13705); test: Inhibition of wild-type human ACVR2B (H169 to D504 residues) expressed in bacterial expression system assessed as residual activity at 1 uM by Kinomescan method relative to control
SU-DHL-2 = test: Growth inhibition of human SU-DHL-2 cells; assay type: functional; conditions: Homo sapiens, SU-DHL-2
[21] = molecular target: Tyrosine-protein kinase JAK2 (Homo sapiens) (UniProt O60674); test: Inhibition of wild-type human partial length JAK2 JH1 catalytic domain (A829 to G1132 residues) expressed in mammalian expression system assessed as residual activity at 1 uM by Kinomescan method relative to control
[22] = molecular target: Serine/threonine-protein kinase N2 (Homo sapiens) (UniProt Q16513); test: Inhibition of wild-type human partial length PKN2 (E634 to C984 residues) expressed in bacterial expression system assessed as residual activity at 1 uM by Kinomescan method relative to control
[23] = test system: Tyrosine-protein kinase ABL1 (Homo sapiens), P00519 [F317L]; test: Inhibition of human phosphorylated ABL1 F317L mutant (S229 to K512 residues) expressed in mammalian expression system assessed as residual activity at 1 uM by Kinomescan method relative to control
[24] = molecular target: Cyclin-dependent kinase-like 2 (Homo sapiens) (UniProt Q92772); test: Inhibition of wild-type human partial length CDKL2 (M1 to D327 residues) expressed in bacterial expression system assessed as residual activity at 1 uM by Kinomescan method relative to control
U2932 = test: Cell cycle arrest in human U2932 cells assessed as increase in accumulation at G0/G1 phase after 48 hrs by propidium iodide/RNase staining based flow cytometric method; assay type: functional

Sequence of Cyclin-dependent kinase 9 (Homo sapiens) (P50750 whole entry, the tested form may be a part): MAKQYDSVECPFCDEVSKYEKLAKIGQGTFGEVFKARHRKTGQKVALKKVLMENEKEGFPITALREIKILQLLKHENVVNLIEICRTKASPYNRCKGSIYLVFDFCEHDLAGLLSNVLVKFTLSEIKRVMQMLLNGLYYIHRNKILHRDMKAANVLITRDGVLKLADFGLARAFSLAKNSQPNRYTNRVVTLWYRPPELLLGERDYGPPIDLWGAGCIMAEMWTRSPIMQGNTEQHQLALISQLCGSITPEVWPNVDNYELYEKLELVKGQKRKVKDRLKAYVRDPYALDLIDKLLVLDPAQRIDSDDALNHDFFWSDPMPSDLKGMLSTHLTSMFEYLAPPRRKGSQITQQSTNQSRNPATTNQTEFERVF
Sequence of Serine/threonine-protein kinase 33 (Homo sapiens) (Q9BYT3 whole entry, looked up, the tested form may be a part): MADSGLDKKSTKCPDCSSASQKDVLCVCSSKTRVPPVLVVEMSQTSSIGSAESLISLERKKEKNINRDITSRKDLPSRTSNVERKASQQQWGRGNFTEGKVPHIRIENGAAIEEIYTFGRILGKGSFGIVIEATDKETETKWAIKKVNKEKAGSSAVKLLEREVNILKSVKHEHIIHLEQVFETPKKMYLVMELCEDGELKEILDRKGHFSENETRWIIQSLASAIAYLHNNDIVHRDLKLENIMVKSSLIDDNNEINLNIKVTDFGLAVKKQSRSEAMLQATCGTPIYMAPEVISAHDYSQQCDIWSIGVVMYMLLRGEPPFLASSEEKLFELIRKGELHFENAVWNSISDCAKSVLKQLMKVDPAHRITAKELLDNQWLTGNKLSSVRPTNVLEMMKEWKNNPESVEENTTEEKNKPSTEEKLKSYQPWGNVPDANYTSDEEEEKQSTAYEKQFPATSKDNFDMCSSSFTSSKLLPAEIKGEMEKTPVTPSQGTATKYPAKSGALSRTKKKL
Sequence of Cyclin-dependent kinase-like 2 (Homo sapiens) (Q92772 whole entry, the tested form may be a part): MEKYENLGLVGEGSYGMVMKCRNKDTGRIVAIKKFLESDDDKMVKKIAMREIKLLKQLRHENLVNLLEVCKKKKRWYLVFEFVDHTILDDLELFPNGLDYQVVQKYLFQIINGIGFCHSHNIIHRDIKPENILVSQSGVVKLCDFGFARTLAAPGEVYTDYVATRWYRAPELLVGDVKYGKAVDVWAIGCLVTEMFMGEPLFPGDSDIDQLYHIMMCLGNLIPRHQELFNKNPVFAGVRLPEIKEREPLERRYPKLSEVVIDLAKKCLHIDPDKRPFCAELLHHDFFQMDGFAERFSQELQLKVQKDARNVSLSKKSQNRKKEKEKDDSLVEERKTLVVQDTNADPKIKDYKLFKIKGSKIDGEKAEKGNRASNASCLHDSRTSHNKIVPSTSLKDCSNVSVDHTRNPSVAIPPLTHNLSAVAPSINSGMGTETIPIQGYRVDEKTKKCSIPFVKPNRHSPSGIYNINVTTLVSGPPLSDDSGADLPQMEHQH
Sequence of Serine/threonine-protein kinase N2 (Homo sapiens) (Q16513 whole entry, looked up, the tested form may be a part): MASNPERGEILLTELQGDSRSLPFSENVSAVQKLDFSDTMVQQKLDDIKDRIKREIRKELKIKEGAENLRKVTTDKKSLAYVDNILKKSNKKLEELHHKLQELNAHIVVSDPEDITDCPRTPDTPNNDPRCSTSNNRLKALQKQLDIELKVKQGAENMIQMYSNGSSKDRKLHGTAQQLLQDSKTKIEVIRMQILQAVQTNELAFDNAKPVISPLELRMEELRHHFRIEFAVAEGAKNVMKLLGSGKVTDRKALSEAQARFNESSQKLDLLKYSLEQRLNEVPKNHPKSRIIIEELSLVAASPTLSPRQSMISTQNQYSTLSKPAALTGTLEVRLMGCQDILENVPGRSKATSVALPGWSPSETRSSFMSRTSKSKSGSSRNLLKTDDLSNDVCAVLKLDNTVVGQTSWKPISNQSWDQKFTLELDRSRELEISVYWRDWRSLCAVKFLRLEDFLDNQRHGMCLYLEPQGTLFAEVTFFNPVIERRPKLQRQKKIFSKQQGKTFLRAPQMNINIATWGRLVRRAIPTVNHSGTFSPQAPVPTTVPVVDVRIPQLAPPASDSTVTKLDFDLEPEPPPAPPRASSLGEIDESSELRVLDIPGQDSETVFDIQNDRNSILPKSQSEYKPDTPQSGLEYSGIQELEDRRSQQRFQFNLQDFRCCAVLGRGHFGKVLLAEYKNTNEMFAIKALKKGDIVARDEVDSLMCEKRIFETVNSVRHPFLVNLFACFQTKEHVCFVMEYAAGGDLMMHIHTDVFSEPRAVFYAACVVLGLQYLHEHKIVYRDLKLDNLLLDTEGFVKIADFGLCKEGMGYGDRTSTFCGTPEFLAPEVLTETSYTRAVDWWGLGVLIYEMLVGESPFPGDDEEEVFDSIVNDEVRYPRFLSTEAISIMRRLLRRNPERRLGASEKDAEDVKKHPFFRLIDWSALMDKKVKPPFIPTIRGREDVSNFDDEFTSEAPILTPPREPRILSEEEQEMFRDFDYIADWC
Sequence of Phosphatidylinositol 4-phosphate 5-kinase type-1 alpha (Homo sapiens) (Q99755 whole entry, the tested form may be a part): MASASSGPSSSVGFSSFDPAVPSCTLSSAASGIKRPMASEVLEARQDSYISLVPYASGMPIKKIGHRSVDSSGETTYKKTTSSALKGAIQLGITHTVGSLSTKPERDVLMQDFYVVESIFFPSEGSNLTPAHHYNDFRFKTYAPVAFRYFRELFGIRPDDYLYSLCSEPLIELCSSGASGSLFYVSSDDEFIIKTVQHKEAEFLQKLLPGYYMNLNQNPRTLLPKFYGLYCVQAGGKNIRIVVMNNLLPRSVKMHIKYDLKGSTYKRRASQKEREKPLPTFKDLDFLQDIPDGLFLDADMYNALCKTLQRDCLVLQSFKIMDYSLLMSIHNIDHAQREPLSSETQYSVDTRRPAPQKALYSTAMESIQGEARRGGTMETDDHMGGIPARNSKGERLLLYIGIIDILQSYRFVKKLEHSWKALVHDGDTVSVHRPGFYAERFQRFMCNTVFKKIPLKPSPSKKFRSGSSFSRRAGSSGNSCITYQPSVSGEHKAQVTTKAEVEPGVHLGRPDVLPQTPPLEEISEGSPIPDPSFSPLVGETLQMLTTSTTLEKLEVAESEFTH
Sequence of Serine/threonine-protein kinase MARK1 (Homo sapiens) (Q9P0L2 whole entry, looked up, the tested form may be a part): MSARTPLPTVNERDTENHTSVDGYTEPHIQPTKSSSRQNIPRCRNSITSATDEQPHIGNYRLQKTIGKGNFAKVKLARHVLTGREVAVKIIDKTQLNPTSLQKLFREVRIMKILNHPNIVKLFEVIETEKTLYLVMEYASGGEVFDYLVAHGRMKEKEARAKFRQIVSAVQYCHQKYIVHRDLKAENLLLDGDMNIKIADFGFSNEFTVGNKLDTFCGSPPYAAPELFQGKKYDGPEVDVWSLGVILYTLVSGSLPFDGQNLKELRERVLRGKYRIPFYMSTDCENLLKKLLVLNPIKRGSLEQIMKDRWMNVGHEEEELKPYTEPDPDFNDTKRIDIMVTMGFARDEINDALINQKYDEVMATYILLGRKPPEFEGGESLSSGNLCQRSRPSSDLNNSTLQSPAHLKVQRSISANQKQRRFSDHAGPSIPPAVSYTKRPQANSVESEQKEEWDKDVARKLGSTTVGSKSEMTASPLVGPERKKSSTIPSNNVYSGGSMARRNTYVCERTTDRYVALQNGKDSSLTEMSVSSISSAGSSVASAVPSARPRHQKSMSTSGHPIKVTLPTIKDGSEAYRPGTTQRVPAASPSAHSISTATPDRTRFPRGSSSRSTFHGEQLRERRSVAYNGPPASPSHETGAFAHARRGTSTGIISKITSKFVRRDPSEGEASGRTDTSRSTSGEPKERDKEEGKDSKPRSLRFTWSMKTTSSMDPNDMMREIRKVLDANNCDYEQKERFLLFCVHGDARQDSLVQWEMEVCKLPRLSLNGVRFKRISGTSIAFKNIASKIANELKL
Sequence of Ankyrin repeat and protein kinase domain-containing protein 1 (Homo sapiens) (Q8NFD2 whole entry, the tested form may be a part): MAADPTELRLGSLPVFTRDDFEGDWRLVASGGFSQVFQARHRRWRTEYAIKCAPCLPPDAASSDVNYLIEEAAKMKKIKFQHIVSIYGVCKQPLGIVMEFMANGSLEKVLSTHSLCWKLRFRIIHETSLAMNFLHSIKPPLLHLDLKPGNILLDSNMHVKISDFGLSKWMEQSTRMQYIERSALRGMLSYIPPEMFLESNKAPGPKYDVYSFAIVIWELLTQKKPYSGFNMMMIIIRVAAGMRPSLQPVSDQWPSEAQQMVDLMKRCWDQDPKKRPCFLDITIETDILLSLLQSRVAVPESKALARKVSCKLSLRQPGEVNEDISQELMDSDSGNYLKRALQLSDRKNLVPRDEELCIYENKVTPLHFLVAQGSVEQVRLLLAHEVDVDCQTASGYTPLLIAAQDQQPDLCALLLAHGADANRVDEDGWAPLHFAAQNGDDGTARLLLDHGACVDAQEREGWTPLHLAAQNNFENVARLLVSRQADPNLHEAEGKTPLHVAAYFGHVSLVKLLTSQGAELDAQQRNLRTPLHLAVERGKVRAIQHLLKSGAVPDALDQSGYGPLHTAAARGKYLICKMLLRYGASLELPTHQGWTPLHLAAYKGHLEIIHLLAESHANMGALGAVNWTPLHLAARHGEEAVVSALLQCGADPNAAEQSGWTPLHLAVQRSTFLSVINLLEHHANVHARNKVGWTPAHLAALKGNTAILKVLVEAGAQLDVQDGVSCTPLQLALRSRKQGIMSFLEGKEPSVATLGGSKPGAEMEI
Sequence of Mitogen-activated protein kinase 12 (Homo sapiens) (P53778 whole entry, the tested form may be a part): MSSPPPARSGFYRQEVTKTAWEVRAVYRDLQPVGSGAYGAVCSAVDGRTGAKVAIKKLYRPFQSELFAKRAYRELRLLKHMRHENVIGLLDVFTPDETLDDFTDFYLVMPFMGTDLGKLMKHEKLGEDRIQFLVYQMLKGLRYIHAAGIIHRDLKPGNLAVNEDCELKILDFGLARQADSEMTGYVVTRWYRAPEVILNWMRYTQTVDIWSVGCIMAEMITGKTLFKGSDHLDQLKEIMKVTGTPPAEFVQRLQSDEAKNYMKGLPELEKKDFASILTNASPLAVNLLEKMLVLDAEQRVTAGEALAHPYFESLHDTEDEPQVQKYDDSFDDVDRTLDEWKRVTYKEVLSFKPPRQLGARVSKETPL

C=CC(=O)Nc1cc(Nc2cc(-c3cccc(NC(=O)c4ccc(C(C)(C)C)cc4)c3C)cn(C)c2=O)ccc1C(=O)N1CCOCC1
Activity [1]: 86% | Activity [2]: 74% | Activity [3]: 94% | Activity [4]: 91% | Activity [5]: 95% | Activity [6]: 78% | Activity [7]: 100% | Activity [8]: 98% | Activity [9]: 95% | Activity [10]: 89% | Activity [11]: 92% | Activity [12]: 99% | Activity [13]: 97% | Activity [14]: 100% | Activity [15]: 97% | Activity [16]: 88% | MRT last [17]: 15.6 min | Activity [18]: 91% | Activity [19]: 100% | Activity [20]: 73% | GI50 (SU-DHL-2): 3 µM | Activity [21]: 73% | Activity [22]: 93% | Activity [23]: 97% | Activity [24]: 100% | Activity (U2932): Dose-dependent effect
